≈ marks a conversion by molar mass, not a printed value. Where two headings read alike, the source gives them in different places.
Columns and labels:
S. aureus ATCC 13709 = experiment: MIC, S. aureus ATCC 13709 (Alamar Blue broth microdilution); type: cell-based; conditions: for MIC: Staphylococcus aureus, ATCC13709, S. aureus
E. coli ATCC 25922 = experiment: MIC, E. coli ATCC 25922; type: cell-based; conditions: for MIC: Escherichia coli, ATCC25922, E. coli
[1] = Alamar Blue read after overnight incubation at 35° C.
[2] = S. aureus, Alamar Blue read after overnight incubation at 35° C.
[3] = E. coli, Alamar Blue read after overnight incubation at 35° C.

Structure (SMILES) | MIC (S. aureus ATCC 13709; [1]) [µg/mL] | MIC (E. coli ATCC 25922; [1]) [µg/mL] | MIC Sa (S. aureus ATCC 13709; [2]) [µg/mL] | MIC Ec (E. coli ATCC 25922; [3]) [µg/mL] | other results
CNc1cc(F)cc2c1[nH]c1nc(Oc3cnc4cccnc4c3)nc(N3CC4CCN[C@H]4C3)c12 (stereo partly shown) [4.044] | ≤ 0.5 | ≤ 0.5 | – | – | –
CNc1cccc2c1[nH]c1nc(Sc3cnc4ccc[n+]([O-])c4c3)nc(N3CC(CN)C3)c12 [1.20] | 4 (≈ 8.72 µM) | 16 (≈ 34.9 µM) | – | – | –
CNc1cc(F)cc2c1[nH]c1nc(Oc3cnc(C)nc3)nc(N3CC4CCNC4C3)c12 (stereo not shown) [4.094] | – | – | ≤0.5 | ≤0.5 | –
CNc1cc(F)cc2c1[nH]c1nc(Oc3cnc(CCO)nc3)nc(N3CC4CC3C[C@@H]4N)c12 (stereo partly shown) [4.428] | – | – | ≤0.5 | 2 (≈ 4.31 µM) | –
CNc1cc(F)cc2c1[nH]c1nc(Oc3cnc4c(c3)OC=CO4)nc(N3C[C@H](N)C4(CC4)C3)c12 [4.305] | – | – | ≤0.5 | 1 (≈ 2.1 µM) | –
CNc1cc(F)cc2c1[nH]c1nc(Oc3cnc(SC)nc3)nc(N3CCC4(C[C@H]4N)C3)c12 (stereo partly shown) [4.203] | – | – | ≤0.5 | ≤0.5 | –
CNc1c(F)ccc2c1[nH]c1nc(Oc3cncnc3)nc(N3CC4C(N)C4C3)c12 (stereo not shown) [6.02] | – | – | – | – | MIC Sa (S. aureus ATCC 13709): ≤0.5 µg/mL; MIC Ec (E. coli ATCC 25922): ≤0.5 µg/mL
COc1cccc2c1[nH]c1nc(Oc3cncnc3)nc(N3CC4C(N)C4C3)c12 (stereo not shown) [2.13] | – | – | 2 (≈ 5.14 µM) | 64 (≈ 164 µM) | –
CNc1cccc2c1[nH]c1nc(Oc3cncc(-c4nnn(C)n4)c3)nc(N3CC4C(N)C4C3)c12 (stereo not shown) [3.24] | 2 (≈ 4.26 µM) | 8 (≈ 17 µM) | – | – | –
CNc1cc(F)cc2c1[nH]c1nc(Oc3cnc(C)nc3)nc(-c3cncc(N)c3)c12 [4.450] | ≤ 0.5 | 2 (≈ 4.8 µM) | – | – | –
CNc1cc(F)cc2c1[nH]c1nc(Oc3ccc4ncsc4c3)nc(N3C[C@H]4CC[C@@H](N)[C@H]4C3)c12 [4.320] | ≤ 0.5 | 1 (≈ 2.04 µM) | – | – | –
COc1cccc2c1[nH]c1nc(Sc3cnc4ccc[n+]([O-])c4c3)nc(N3CC(N)C3)c12 [1.77] | 2 (≈ 4.49 µM) | > 64 | – | – | –
Cc1ncc(Oc2nc(N3C[C@H](N)C4(CC4)C3)c3c(n2)[nH]c2c(N(C)C(=O)[C@H](C)N)cc(F)cc23)cn1 [4.423] | > 16 | > 16 | – | – | –
CNc1cc(F)cc2c1[nH]c1nc(Oc3cncnc3)nc(N3CCCC(C)(N)C3)c12 (stereo not shown) [4.024] | ≤ 0.5 | 2 (≈ 4.73 µM) | – | – | –
CNc1cc(F)cc2c1[nH]c1nc(Oc3cncc(SC)c3)nc(N3CC4C[C@@H](N)C4C3)c12 (stereo partly shown) [4.355] | ≤ 0.5 | ≤ 0.5 | – | – | –
CNc1cc(F)cc2c1[nH]c1nc(Oc3cnc(NCC4CCCO4)nc3)nc(N3C[C@H](N)C4(CC4)C3)c12 (stereo partly shown) [4.406] | ≤ 0.5 | 1 (≈ 1.92 µM) | – | – | –
CNc1cc(F)cc2c1[nH]c1nc(Oc3cnc(SC)nc3)nc(N3CC4C(CN)C4C3)c12 (stereo not shown) [4.197] | – | – | ≤0.5 | ≤0.5 | –
CNc1cc(Cl)cc2c1[nH]c1nc(Oc3cnc(N)nc3)nc(N3CCC4(CC4N)C3)c12 (stereo not shown) [6.15] | – | – | – | – | MIC Sa (S. aureus ATCC 13709): ≤0.5 µg/mL; MIC Ec (E. coli ATCC 25922): ≤0.5 µg/mL
CNc1cccc2c1[nH]c1nc(Oc3cnc4cccnc4c3)nc(N3CC4C(N)C4C3)c12 (stereo not shown) [3.34] | ≤ 0.5 | ≤ 0.5 | – | – | –
CNc1cccc2c1[nH]c1nc(Sc3cnc4cccnc4c3)nc(N3CCNCC3)c12 [1.46] | 2 (≈ 4.52 µM) | 4 (≈ 9.04 µM) | – | – | –
CNc1cccc2c1[nH]c1nc(Sc3cnc4cccnc4c3)nc(N3CCC[C@@H](N)C3)c12 [1.37] | 1 (≈ 2.19 µM) | 4 (≈ 8.76 µM) | – | – | –
CNc1cc(F)cc2c1[nH]c1nc(Oc3cnc4c(c3)C(=O)NC4)nc(N3C[C@H](N)C4(CC4)C3)c12 [4.356] | ≤ 0.5 | 4 (≈ 8.43 µM) | – | – | –
CNc1cc(F)cc2c1[nH]c1nc(Oc3cnc(SC)nc3)nc(N3CC4CC(N)C4C3)c12 (stereo not shown) [4.196] | ≤ 0.5 | ≤ 0.5 | – | – | –
CNc1cc(F)cc2c1[nH]c1nc(Oc3cnc(N(C)C)nc3)nc(N3CCC(N)C3)c12 (stereo not shown) [4.207] | – | – | ≤0.5 | ≤0.5 | –
CNc1cc(F)cc2c1[nH]c1nc(Oc3cnc(CCO)nc3)nc(N3CC4C[C@@H](N)C4C3)c12 (stereo partly shown) [4.429] | – | – | ≤0.5 | 1 (≈ 2.15 µM) | –
CNc1cccc2c1[nH]c1nc(Oc3cncnc3)nc(N3CCC4(CC4N)C3)c12 (stereo not shown) [3.41] | ≤ 0.5 | ≤ 0.5 | – | – | –
